Reference: patent US20230212225A1, “PEPTIDE COMPOSTIONS AND METHODS FOR TREATING TAUOPATHIES” (AXOLTIS PHARMA, priority 2019, published 2023)
Where a SMILES comes first, the peptide text is derived from it.

What was measured:
[1] = Preliminary in vitro conversion of NX210 in rat plasma; assay type: in vitro ADME
[2] = Pharmacokinetics in human healthy subjects; assay type: in vivo; conditions: single IV 10 mg/kg
Method: As in animals; PK study of NX210 in Human Healthy subjects was conducted following the measurement of its cyclic form NX218.

[3] = tested on: Aβ1-42 (amyloid-beta 1-42); assay: Brain biomarker assessment, hippocampus ELISA, D11; assay type: in vivo, mice
Method: (§1) In order to evaluate potential biological effects of NX210 or NX218 treatments on pathological biomarkers, mice from the Sc.Aβ / Vhc (n=6), Aβ25-35 / Vhc (n=6), Aβ25-35 / NX210 IP 2 mg/kg (n=5) and Aβ25-35 / NX218 IP 2 mg/kg (n=5) groups were sacrificed under anesthesia ten days after ICV injection of Aβ25-35 peptide (D11) and daily compound administrations (once a day).
(§2) For each mouse, the brain was quickly removed and dissected out on an ice-cold metal plate into 2 hemi-hippocampi, 2 hemi-frontal cortices and the rest of brain. Straight after each collection, brain samples were frozen on dry ice and stored at -80° C. After thawing, brain structures were dissociated in 50 mM Tris-150 mM NaCl buffer, pH 7.5, and sonicated for 20 sec. After centrifugation, supernatants containing proteins were used for ELISA assays according to the manufacturer’s instructions (see below). • For Aβ1-42 (amyloid-beta 1-42), use of the left hippocampus, ELISA kit from Cloud-Clone Corp., ref: CEA946Mu; batch: L190107385 • For pTau (phosphorylated Tau protein), use of the left hippocampus, ELISA kit from Fisher Scientific, ref: 10591255; batch: 187860001
(§3) For all assays, the absorbance was read at 450 nm and each sample concentration was calculated by using a specific standard curve. All samples were run in duplicate and the average of these duplicates was used for calculations.

[4] = tested on: pTau (phosphorylated Tau protein); assay: Brain biomarker assessment, hippocampus ELISA, D11; assay type: in vivo, mice
Method: as §1, §2, §3

[5] = tested on: Aβ25-35-induced short-term memory deficits; assay: Spontaneous alternation performance (Y-maze), treatment started 1 hour after Aβ25-35 injection, tested D08; assay type: in vivo, mice; conditions: for Y-maze % (Sc.Aβ / Vhc = 100) / Y-maze Mean, percentage of alternation: D08
[6] = tested on: hippocampal CA1 pyramidal neurons; assay: Histological study, cresyl violet CA1 pyramidal neuron counting, D15; assay type: in vivo, mice
Text: In order to measure neuronal loss in this model (as described by Maurice et al., 2013), a well-known pathological event occurring in patients with AD/Tauopathies, hippocampal neurons were counted in the brain of Sham, Aβ25-35 / vehicle and Aβ25-35 / NX210-treated mice.
To do so, fourteen days after ICV injection of Aβ25-35 or Scrambled peptide (D15) and daily compound administrations of NX210 (IP) or vehicle (IP), mice were anaesthetized by ketamine/xylazine and then transcardially perfused with phosphate buffer solution (PBS, 15 ml at 5 ml/min, pH 7.4) until fluid running clear, followed by a solution of 4% paraformaldehyde (PFA, 25 ml at 5 ml/min) until the fixation tremors disappeared. Brains were removed carefully and kept in 4% PFA at 4° C. for 24-48 h. Brains were then dehydrated through a series of graded ethanol baths to displace the water, and then infiltrated with wax. Finally, the infiltrated brains were embedded into wax blocks and sectioned at […]. Cresyl violet (CV) staining was performed on 9 brain sections per animal, each coronal section separated by 100 µm for CA1 pyramidal neuron counting.

[7] = tested on: Aβ25-35-induced long-term memory deficits; assay: Step-through passive avoidance test (STPA), D09-D10; assay type: in vivo, mice
[8] = measured as NX218, maximum, N=3
[9] = measured as NX218, minimum, N=3
[10] = 2 mg/kg once a day for ten days
[11] = IP 2 mg/kg once a day, left hippocampus, D11
[12] = IP 2 mg/kg every other day (1/2d)
[13] = IP 3.75 mg/kg every other day (1/2d)
[14] = once a day, NX210 0.1 mg/kg, NX218 0.1 mg/kg, DPZ 0.25 mg/kg

Compound: N=C(N)NCCC[C@H](NC(=O)[C@H](CO)NC(=O)[C@H](CS)NC(=O)[C@H](CO)NC(=O)[C@H](CO)NC(=O)[C@H](Cc1c[nH]c2ccccc12)NC(=O)CNC(=O)[C@H](CO)NC(=O)[C@@H](N)Cc1c[nH]c2ccccc12)C(=O)N[C@@H](CO)C(=O)N[C@@H](CS)C(=O)NCC(=O)O [NX210, W-S-G-W-S-S-C-S-R-S-C-G] (H-WSGWSSCSRSCG-OH; N-terminus and C-terminus assumed)
- conversion by oxidation in rat plasma, in words [1]: rapidly converted into NX218
- Kel (clearance rate constant), AM ([2]; measured as NX218, arithmetic mean, N=3): 0.0348 I/min
- Kel (clearance rate constant), GM ([2]; measured as NX218, geometric mean, N=3): 0.0347 I/min
- AUClast, Max ([2]; measured as NX218, maximum): 7850 ng·min/mL
- Cmax, Max ([2]; measured as NX218, maximum): 1.04 µg/mL
- Tmax, Max ([2]; measured as NX218, maximum): 12.00 min
- AUC∞, Max [2, 8]: 7920 ng·min/mL
- Kel (clearance rate constant), Max [2, 8]: 0.0372 I/min
- t½, Max [2, 8]: 22.5 min
- Kel (clearance rate constant), Median ([2]; measured as NX218, median, N=3): 0.0365 I/min
- AUClast, Min ([2]; measured as NX218, minimum): 1470 ng·min/mL
- Cmax, Min ([2]; measured as NX218, minimum): 0.185 µg/mL
- Tmax ([2]; measured as NX218, minimum): 6.00 min
- AUC∞, Min [2, 9]: 2800 ng·min/mL
- Kel (clearance rate constant), Min [2, 9]: 0.0308 I/min
- t½ [2, 9]: 18.6 min
- effect on brain Aβ1-42 vs Aβ25-35 / Vhc group, in words [3, 10]: significantly decreased
- Aβ1-42 %, percentage of the control group (Sc.Aβ / Vhc) [3, 11]: 107%
- Aβ1-42 Mean [3, 11]: 24.25
- effect on brain pTau vs Aβ25-35 / Vhc group, in words [4, 10]: significantly decreased
- pTau %, percentage of the control group (Sc.Aβ / Vhc) [4, 11]: 151%
- pTau Mean [4, 11]: 90.21
- effect on spatial short-term working memory deficits (Y-maze), in words ([5]; 1, 2 and 3.75 mg/kg IP, once a day or every other day): significantly rescued
- Y-maze % (Sc.Aβ / Vhc = 100) ([5]; IP 0.1 mg/kg once a day): 60%
- Y-maze Mean, percentage of alternation ([5]; IP 0.1 mg/kg once a day): 44.52%
- Y-maze % (Sc.Aβ / Vhc = 100) ([5]; IP 1 mg/kg once a day): 79%
- Y-maze Mean, percentage of alternation ([5]; IP 1 mg/kg once a day): 58.16%
- Y-maze % (Sc.Aβ / Vhc = 100) [5, 12]: 100%
- Y-maze Mean, percentage of alternation [5, 12]: 74.35%
- Y-maze % (Sc.Aβ / Vhc = 100) ([5]; IP 2 mg/kg once a day): 98%
- Y-maze Mean, percentage of alternation ([5]; IP 2 mg/kg once a day): 72.67%
- Y-maze % (Sc.Aβ / Vhc = 100) [5, 13]: 98%
- Y-maze Mean, percentage of alternation [5, 13]: 72.62%
- Y-maze % (Sc.Aβ / Vhc = 100) ([5]; IP 3.75 mg/kg once a day): 96%
- Y-maze Mean, percentage of alternation ([5]; IP 3.75 mg/kg once a day): 70.90%
- restoration of short-term memory to Sham level (Y-maze), in words ([5]; NX210 at 2 and 3.75 mg/kg, NX218 at 1, 2 and 3.75 mg/kg): complete restoration
- effect on Aβ25-35-induced short-term memory deficits (Y-maze) at subactive dose, in words [5, 14]: do not impede
- effect on neuronal loss in the hippocampus, in words ([6]; 2 mg/kg): significantly prevents
- Histology %, percentage of control (Sc.Aβ / Vhc) ([6]; IP 2 mg/kg once a day, D15): 93%
- Histology Mean ([6]; IP 2 mg/kg once a day, D15): 311.84 number of neurons per mm of tissue
- EL % (Sc.Aβ / Vhc = 100) ([7]; IP 0.1 mg/kg once a day): 449%
- EL Mean, escape latency, retention session ([7]; IP 0.1 mg/kg once a day): 89.42 s
- STL % (Sc.Aβ / Vhc = 100) ([7]; IP 0.1 mg/kg once a day): 42%
- STL Mean, step-through latency, retention session ([7]; IP 0.1 mg/kg once a day): 118.92 s
- EL % (Sc.Aβ / Vhc = 100) ([7]; IP 1 mg/kg once a day): 267%
- EL Mean, escape latency, retention session ([7]; IP 1 mg/kg once a day): 53.08 s
- STL % (Sc.Aβ / Vhc = 100) ([7]; IP 1 mg/kg once a day): 63%
- STL Mean, step-through latency, retention session ([7]; IP 1 mg/kg once a day): 177.92 s
- EL % (Sc.Aβ / Vhc = 100) [7, 12]: 110%
- EL Mean, escape latency, retention session [7, 12]: 22.00 s
- STL % (Sc.Aβ / Vhc = 100) [7, 12]: 93%
- STL Mean, step-through latency, retention session [7, 12]: 263.33 s
- EL % (Sc.Aβ / Vhc = 100) ([7]; IP 2 mg/kg once a day): 156%
- EL Mean, escape latency, retention session ([7]; IP 2 mg/kg once a day): 31.17 s
- STL % (Sc.Aβ / Vhc = 100) ([7]; IP 2 mg/kg once a day): 88%
- STL Mean, step-through latency, retention session ([7]; IP 2 mg/kg once a day): 248.33 s
- EL % (Sc.Aβ / Vhc = 100) [7, 13]: 119%
- EL Mean, escape latency, retention session [7, 13]: 23.75 s
- STL % (Sc.Aβ / Vhc = 100) [7, 13]: 94%
- STL Mean, step-through latency, retention session [7, 13]: 264.75 s
- EL % (Sc.Aβ / Vhc = 100) ([7]; IP 3.75 mg/kg once a day): 139%
- EL Mean, escape latency, retention session ([7]; IP 3.75 mg/kg once a day): 27.67 s
- STL % (Sc.Aβ / Vhc = 100) ([7]; IP 3.75 mg/kg once a day): 90%
- STL Mean, step-through latency, retention session ([7]; IP 3.75 mg/kg once a day): 255.50 s
- effect on contextual long-term memory deficits (STL and EL), in words ([7]; NX210 2 and 3.75 mg/kg, NX218 1, 2 and 3.75 mg/kg, once a day or every other day): fully rescued
- effect on contextual long-term memory deficits (STL and EL) at subactive dose, in words [7, 14]: do not impede
